Reference: patent publication US12059400B2, “Medical compound” (VERA SALUS RICERCA S.R.L., priority 2017, dated 2024)

Columns and labels:
SCC cells (A431) = experiment: Cell proliferation, crystal violet method; assay type: cell-based, human; conditions: for A431 cell growth vs vehicle control: 90 μM, FIG. 2a, 2b; for IC50: crystal violet, spectrophotometer, read-out: IC50 anti-proliferative effect, SCC (A431)
Protocol: (§1) The compound according to the invention, and in particular the synthetic quercetin derivatives described and illustrated herein were investigated in vitro by using human tumour cells and assessing their impact on the tumour proliferative capacity, with regard to the tumours described above. In particular, the following human tumour cell lines were assessed experimentally: 1) HCT116, colon adenocarcinoma cells; 2) H1299, lung adenocarcinoma cells; 3) A375, melanoma cells, and 4) A431, squamous skin cell carcinoma; 5) 786-0, renal carcinoma cells; 6) PC3, prostate carcinoma cells; 7) BT549, mammary carcinoma cells; 8) CAL27, tongue carcinoma cells (belonging to the head-and-neck carcinomas); 9) HepG2, hepatocellular carcinoma cells; 10) PANC-1, pancreas carcinoma cells; 11) T24, bladder carcinoma cells; 12) OVCAR-3, ovarian carcinoma cells. In addition, a normal human cell line, WS1 (skin fibroblasts) was also treated with the novel synthetic compounds. Cell proliferation was quantified by the crystal violet method with a spectrophotometer. In short, after acquiring serial images (0, 24 and 48 hrs) with the EVOS XL Cell Imaging System microscope (Thermo Fisher Scientific), the cells imaged at 48 hrs were fixed with paraformaldehyde (4%) and stained with Crystal Violet (1%). Then, the specific absorbance (λ=590 nm) at 48 hrs was measured with a spectrophotometer (Infinite®200 PRO, Tecan). Data analysis was carried out by using ad-hoc Excel files for graphical representation and statistical processing (t-test). Moreover, the results obtained with Crystal Violet were confirmed by using another cell proliferation assessment method based on the real time cellular analyzer XCELLigence RTCA DP (ACEA Biosciences, Inc.). This tool allows cell growth to be monitored from electrical impedance-derived quantitative values (the so-called Cell Index) measured by tiny electrodes located at the base of the culture wells. Proliferation is monitored for several days (5-7) by setting a Cell Index per minute measure on the instrument. The data are analysed by processing various parameters calculated by the dedicated software, such as the cell duplication time, the slope and the Max Cell Index. […] Cell proliferation was quantitated spectrophotometrically by the crystal violet method.

[1] = tested on: human bladder carcinoma cells (T24); experiment: Cell proliferation, crystal violet method; assay type: cell-based; conditions: for T24 cell growth vs vehicle control: 80 μM, FIG. 10a, 10b; for IC50: crystal violet, spectrophotometer, read-out: IC50 anti-proliferative effect, BC (T24)
Protocol: as §1

[2] = tested on: human pancreatic carcinoma cells (PANC-1); experiment: Cell proliferation, crystal violet method; assay type: cell-based; conditions: for PANC-1 cell growth vs vehicle control: 80 μM, FIG. 9a, 9b; for IC50: crystal violet, spectrophotometer, read-out: IC50 anti-proliferative effect, PCC (PANC-1)
Protocol: as §1

[3] = tested on: human prostate carcinoma cells (PC3); experiment: Cell proliferation, crystal violet method; assay type: cell-based; conditions: for PC3 cell growth vs vehicle control: 80 μM, FIG. 5a, 5b; for IC50: crystal violet, spectrophotometer, read-out: IC50 anti-proliferative effect, PC - (PC3)
Protocol: as §1

[4] = tested on: human renal carcinoma cells (786-0); experiment: Cell proliferation, crystal violet method; assay type: cell-based; conditions: for 786-0 cell growth vs vehicle control: 80 μM, FIG. 4a, 4b; for IC50: crystal violet, spectrophotometer, read-out: IC50 anti-proliferative effect, RCC - (786-O)
Protocol: as §1

[5] = tested on: human colon (HCT116) tumour line; experiment: Apoptosis, acridine orange/ethidium bromide method; assay type: cell-based; conditions: 2 hrs; Compound 2 50 μM, 5 40 μM, 4 40 μM, 3 60 μM, 1 60 μM; FIG. 18
Excerpt: Tumour cell apoptosis was quantified by the acridine orange/ethidium bromide (AO/EB) method and by using a fluorescence microscope and image-J. In short, after treatment with the test compounds (2 hrs), the tumour cells were placed in contact with an AO/EB solution (in sterile H2O) and photographed with a fluorescence microscope (Leica) by using the ≥20× objective (so as to distinguish the morphology of cell nuclei). In this way, the living cells are labelled with AO and emit fluorescence in the green channel, while the necrotic cells, which have undergone the rupture of the plasma membrane, are permeable to EB and emit fluorescence in the red channel. In contrast, apoptotic cells are permeable to both AO and EB, and as a consequence of the colocalization of the two fluorescences appear yellow-orange when the two individual microscope-acquired fluorescences are superimposed by using the editing program Image J. The objective quantification of the colocalization areas (apoptotic cells) and the non-colocalization areas (living or necrotic cells) was carried out on a number of cells ≥300/condition through the use of Apoptosis Correlator (ImageJ plug-in) and shown as the percentage of living (green), necrotic (red) or apoptotic (yellow-orange) tumour cells. Data analysis was carried out by using GraphPad Prism 6 for graphical representation and statistical processing (2-way ANOVA test).

[6] = tested on: normal cells (human skin fibroblasts, WS1); experiment: Apoptosis, acridine orange/ethidium bromide method; assay type: cell-based; conditions: 2 hrs; Compound 2 40 μM, 5 40 μM, 4 40 μM, 3 60 μM, 1 80 μM; FIG. 18
[7] = tested on: human melanoma cells (A375); experiment: Cell cycle progression, propidium iodide method, cytofluorimeter; assay type: cell-based; conditions: for halt of A375 tumour cells in S and/or G2 of the cell cycle: 24 hrs, at the respective anti-proliferative IC50s, FIG. 19
Protocol: (§2) Progression through the tumour cell cycle was assessed by the propidium iodide method and quantification of the cell DNA content with a cytofluorimeter. Briefly, after treatment (in duplicate) with the test compounds (24 hrs), the tumour cells were washed (with PBS), detached with trypsin-EDTA and pelleted by centrifugation (125 g for 6 min). The cells were then fixed in ethanol (70%) and stored in the freezer (−20° C.) for 1-3 days. After further washing (PBS) and treatment with RNAse (50 ug/ml), the cells were contacted (on ice in the dark; 30 min) with propidium iodide (50 μg/ml). FL2 and FL3 cytofluorimeter readings analysed approximately 50,000 cells (1 μl/second) per sample. Statistical analysis and graphical representation were performed by using t-tests and preset Excel property files.

[8] = tested on: human colon carcinoma cells (HCT116); experiment: as above; assay type: cell-based; conditions: for halt of HCT116 tumour cells in S of the cell cycle: 24 hrs, at the respective anti-proliferative IC50s, FIG. 20
Protocol: as §2

Substance | A431 cell growth vs vehicle control (SCC cells (A431)) | IC50 (SCC cells (A431)) | T24 cell growth vs vehicle control [1] | IC50 [1] | PANC-1 cell growth vs vehicle control [2] | IC50 [2] | PC3 cell growth vs vehicle control [3] | IC50 [3] | 786-0 cell growth vs vehicle control [4] | IC50 [4] | induction of apoptosis in HCT116 [5] | induction of apoptosis in normal cells WS1 [6] | halt of A375 tumour cells in S and/or G2 of the cell cycle [7] | halt of HCT116 tumour cells in S of the cell cycle [8] | effect on the HCT116 cell cycle in presence of ROS scavenger NAC ([8]; Compound at its anti-proliferative IC50 + N-Acetyl Cysteine 10 mM, FIG. 21 left) | effect on the A375 cell cycle in presence of ROS scavenger NAC ([7]; Compound at its anti-proliferative IC50 + N-Acetyl Cysteine 10 mM, FIG. 21 right)
2-(3,4-dihydroxyphenyl)-5,7-dihydroxy-4-oxo-4H-chromen-3-yl palmitate [Compound 5] | significantly inhibit | 25.5 µM | significantly inhibit | 50.5 µM | significantly inhibit | 69.4 µM | significantly inhibit | 56.9 µM | significantly inhibit | 32.6 µM | induced apoptosis | not in normal cells | significantly halt | – | – | –
2-(3,4-Dihydroxyphenyl)-3-hexyloxy-5,7-dihydroxy-4H-chromen-4-one [Compound 2] | significantly inhibit | 40.3 µM | significantly inhibit | 66.8 µM | significantly inhibit | 95.4 µM | – | 309 µM | significantly inhibit | 72.5 µM | induced apoptosis | not in normal cells | significantly halt | – | – | –
2-(3,4-dihydroxyphenyl)-5,7-dihydroxy-4-oxo-4H-chromen-3-yl acetate [Compound 4] | significantly inhibit | 31 µM | significantly inhibit | 45.5 µM | significantly inhibit | 69.6 µM | significantly inhibit | 34.9 µM | significantly inhibit | 41.2 µM | induced apoptosis | not in normal cells | significantly halt | significantly halt | – | –
2-(3,4-Dihydroxyphenyl)-3-hexadecyloxy-5,7-dihydroxy-4H-chromen-4-one [Compound 3] | – | – | significantly inhibit | 44.9 µM | significantly inhibit | 156 µM | significantly inhibit | 46.2 µM | significantly inhibit | 65.4 µM | induced apoptosis | not in normal cells | exception | significantly halt | – | –
2-(3,4-Dihydroxyphenyl)-3-ethoxy-5,7-dihydroxy-4H-chromen-4-one [Compound 1] | – | – | – | > 1000 µM | – | > 1000 µM | significantly inhibit | 79.3 µM | significantly inhibit | 149 µM | induced apoptosis | not in normal cells | significantly halt | significantly halt | partly mediated by ROS | partly mediated by ROS
